Like-named read-outs stand apart in the source and are kept apart here.
Key:
[1] = Example 2: open-label dose-escalation pharmacokinetic and safety study in children and adolescents with ADHD; type: in vivo, human; conditions: for AUC(0-t) / AUC(0-inf) / Cmax / Tmax / half-life / Vd/F: both sexes, human, plasma; for Vd/F: read-out: Vz/F
Experimental: Objective: The objective of this study was to assess the pharmacokinetics of controlled-release guanfacine after a single 2 mg dose or multiple doses of 2 mg and 4 mg from Table 2.
Methods: An open-label, dose-escalation study in male and female children (aged 6-12 years) and adolescents (aged 13-17 years) with ADHD. Subjects weighed 25 kg (55 lb) or more but were not considered overweight in the opinion of the investigator. Their electrocardiogram readings (ECGs) were within normal ranges, and their blood pressure measurements were within the 95th percentile for their age, height, and gender. […] Informed consent was given by the patient's parent or guardian.
[…] The dose was then titrated down to 3 mg on days 30 to 32, and 2 mg on days 33 to 35. Pharmacokinetic assessments were made after the single 2 mg dose and after 6 days of repeated 2 mg and 4 mg doses.

[2] = Example 3: Phase I single-dose crossover bioequivalence/dose proportionality study, 1 mg, 2 mg, 4 mg tablets, healthy adult volunteers; type: in vivo, human; conditions: human, in vivo; for AUC(0-t): AUC0-last
Experimental: Objectives: The study was designed to assess the bioequivalence of guanfacine 2 mg and 4 mg tablets from table 2 and to investigate the dose proportionality of 1 mg, 2 mg, and 4 mg doses.
Methods: This was a Phase I, randomized, open-label, single-dose, five period, four-treatment crossover design with a separate lead-in period.
Forty-nine (49) healthy adult volunteers completed the study. During period 1, all subjects received a single 1 mg dose administered after and overnight fast. Prior to period 2, subjects were randomly assigned to one of four sequence groups, with 13 subjects per sequence. During treatment periods 2-5, subjects received their assigned treatment of 2 mg or 4 mg. All subjects were to receive two single doses of 2 mg tablets and two single doses of 4 mg tablets during the course of the study. Doses during periods 2-5 were also administered after an overnight fast.

[3] = 28 children and adolescents with ADHD, 2-4 mg qd dose escalation
[4] = po, 2 mg, single 2 mg oral dose, Day 1, adolescents 13-17 yrs, ADHD patients, N = 14
[5] = po, 2 mg, single 2 mg oral dose, Day 1, children 6-12 yrs, ADHD patients, N = 14
[6] = single 2 mg oral dose, Day 1, adolescents 13-17 yrs, ADHD patients, N = 14
[7] = single 2 mg oral dose, Day 1, children 6-12 yrs, ADHD patients, N = 14

N=C(N)NC(=O)Cc1c(Cl)cccc1Cl [guanfacine]
abnormalities on ECGs, hematologic parameters, or serum chemistries [1, 3]: No clinically significant abnormalities
discontinuations due to adverse events [1, 3]: no discontinuations
severity of most AEs [1, 3]: mild to moderate
subjects with somnolence (AE possibly or probably due to treatment) [1, 3]: 93%
subjects judged to have severe somnolence ([1]; 28 children and adolescents with ADHD, 2-4 mg qd dose escalation, 6 subjects): 21%
CL/F ([1]; Day 14, 2 mg once daily oral, adolescents 13-17 yrs, ADHD patients, N = 14): 826 ± 486 mL/min
CL/F ([1]; Day 14, 2 mg once daily oral, children 6-12 yrs, ADHD patients, N = 14): 552 ± 215 mL/min
CL/F ([1]; Day 28, 4 mg once daily oral, adolescents 13-17 yrs, ADHD patients, N = 14): 607 ± 166 mL/min
CL/F ([1]; Day 28, 4 mg once daily oral, children 6-12 yrs, ADHD patients, N = 14): 522 ± 212 mL/min
AUC(0-t) ([1]; oral, 2 mg, dose of 2 mg of guanfacine, fasted patients ages 6-12 suffering from ADHD, read-out: AUC0-last): ~56.9 ng·h/mL
AUC(0-inf) ([1]; oral, 2 mg, dose of 2 mg of guanfacine, fasted patients ages 6-12 suffering from ADHD, read-out: AUC∞): ~65.2 ng·h/mL
Cmax ([1]; oral, 2 mg, dose of 2 mg of guanfacine, fasted patients ages 6-12 suffering from ADHD, read-out: mean Cmax): ~2.55 ng/mL
Tmax ([1]; oral, 2 mg, dose of 2 mg of guanfacine, fasted patients ages 6-12 suffering from ADHD, read-out: median Tmax): ~5 h
AUC(0-t) ([1]; oral, 2 mg, dose of 2 mg of guanfacine, fasted patients ages 13-17 suffering from ADHD, read-out: AUC0-last): ~42.7 ng·h/mL
AUC(0-inf) ([1]; oral, 2 mg, dose of 2 mg of guanfacine, fasted patients ages 13-17 suffering from ADHD, read-out: AUC∞): ~47.2 ng·h/mL
Cmax ([1]; oral, 2 mg, dose of 2 mg of guanfacine, fasted patients ages 13-17 suffering from ADHD, read-out: mean Cmax): ~1.69 ng/mL
Tmax ([1]; oral, 2 mg, dose of 2 mg of guanfacine, fasted patients ages 13-17 suffering from ADHD, read-out: median Tmax): ~5 h
half-life ([1]; oral, 2 mg, measured for the 2 mg formulation, fasted patients ages 6-12 suffering from ADHD): 14.4 ± 2.4 h
half-life ([1]; oral, 2 mg, measured for the 2 mg formulation, fasted patients ages 13-17 suffering from ADHD): 17.9 ± 5.8 h
AUC(0-t) ([1]; po, 2 mg, Day 14, 2 mg once daily oral, adolescents 13-17 yrs, ADHD patients, N = 14, read-out: AUC0-24): 48.2 ± 16.1 ng·h/mL
Cmax ([1]; po, 2 mg, Day 14, 2 mg once daily oral, adolescents 13-17 yrs, ADHD patients, N = 14, read-out: Cmax): 2.86 ± 0.77 ng/mL
Tmax ([1]; po, 2 mg, Day 14, 2 mg once daily oral, adolescents 13-17 yrs, ADHD patients, N = 14, read-out: Tmax): 4.53 h
AUC(0-t) ([1]; po, 2 mg, Day 14, 2 mg once daily oral, children 6-12 yrs, ADHD patients, N = 14, read-out: AUC0-24): 70 ± 28.3 ng·h/mL
Cmax ([1]; po, 2 mg, Day 14, 2 mg once daily oral, children 6-12 yrs, ADHD patients, N = 14, read-out: Cmax): 4.39 ± 1.66 ng/mL
Tmax ([1]; po, 2 mg, Day 14, 2 mg once daily oral, children 6-12 yrs, ADHD patients, N = 14, read-out: Tmax): 4.98 h
half-life [1, 4]: 17.9 ± 5.77 h
AUC(0-t) ([1]; po, 2 mg, single 2 mg oral dose, Day 1, adolescents 13-17 yrs, ADHD patients, N = 14, read-out: AUC0-t): 42.7 ± 12.9 ng·h/mL
AUC(0-inf) ([1]; po, 2 mg, single 2 mg oral dose, Day 1, adolescents 13-17 yrs, ADHD patients, N = 14, read-out: AUC0-∞): 47.3 ± 13.7 ng·h/mL
Cmax ([1]; po, 2 mg, single 2 mg oral dose, Day 1, adolescents 13-17 yrs, ADHD patients, N = 14, read-out: Cmax): 1.69 ± 0.43 ng/mL
Tmax ([1]; po, 2 mg, single 2 mg oral dose, Day 1, adolescents 13-17 yrs, ADHD patients, N = 14, read-out: Tmax): 4.96 h
Vd/F [1, 4]: 1240 L
half-life [1, 5]: 14.4 ± 2.39 h
AUC(0-t) ([1]; po, 2 mg, single 2 mg oral dose, Day 1, children 6-12 yrs, ADHD patients, N = 14, read-out: AUC0-t): 56.9 ± 22 ng·h/mL
AUC(0-inf) ([1]; po, 2 mg, single 2 mg oral dose, Day 1, children 6-12 yrs, ADHD patients, N = 14, read-out: AUC0-∞): 65.2 ± 23.9 ng·h/mL
Cmax ([1]; po, 2 mg, single 2 mg oral dose, Day 1, children 6-12 yrs, ADHD patients, N = 14, read-out: Cmax): 2.55 ± 1.03 ng/mL
Tmax ([1]; po, 2 mg, single 2 mg oral dose, Day 1, children 6-12 yrs, ADHD patients, N = 14, read-out: Tmax): 4.98 h
Vd/F [1, 5]: 766 ± 380 L
AUC(0-t) ([1]; po, 4 mg, Day 28, 4 mg once daily oral, adolescents 13-17 yrs, ADHD patients, N = 14, read-out: AUC0-24): 117 ± 28.4 ng·h/mL
Cmax ([1]; po, 4 mg, Day 28, 4 mg once daily oral, adolescents 13-17 yrs, ADHD patients, N = 14, read-out: Cmax): 7.01 ± 1.53 ng/mL
Tmax ([1]; po, 4 mg, Day 28, 4 mg once daily oral, adolescents 13-17 yrs, ADHD patients, N = 14, read-out: Tmax): 4.97 h
AUC(0-t) ([1]; po, 4 mg, Day 28, 4 mg once daily oral, children 6-12 yrs, ADHD patients, N = 14, read-out: AUC0-24): 162 ± 116 ng·h/mL
Cmax ([1]; po, 4 mg, Day 28, 4 mg once daily oral, children 6-12 yrs, ADHD patients, N = 14, read-out: Cmax): 10.1 ± 7.09 ng/mL
Tmax ([1]; po, 4 mg, Day 28, 4 mg once daily oral, children 6-12 yrs, ADHD patients, N = 14, read-out: Tmax): 5.02 h
linearity of pharmacokinetics ([1]; single 2 mg doses and multiple 2 mg and 4 mg doses, children (6-12 years) and adolescent (13-17 years) ADHD patients): linear
CL/F [1, 6]: 815 ± 214 mL/min
λz [1, 6]: 0.0428 ± 0.0153 h⁻¹
CL/F [1, 7]: 612 ± 252 mL/min
λz [1, 7]: 0.0496 ± 0.0093 h⁻¹
AUC(0-t) ([2]; 1 mg): ~29.3 ng·h/mL
AUC(0-inf) ([2]; 1 mg, AUC∞): ~32.4 ng·h/mL
Cmax ([2]; 1 mg, mean Cmax): ~0.98 ng/mL
Tmax ([2]; 1 mg, median Tmax): ~6 h
half-life ([2]; 1 mg, t1/2): 17.5 ± 3.8 h
AUC(0-t) ([2]; 4 mg): ~120 ng·h/mL

Reference: US20070048371A1, “Pharmaceutical formulations/composition of guanfacine suitable for single dose form administration daily” (priority 2005, published 2007)
